This is an account of results in patent US9657015B2, “Substituted bicyclic dihydropyrimidinones and their use as inhibitors of neutrophil elastase activity” (Boehringer Ingelheim International GmbH, priority 2014, dated 2017).

Molecules are shown by their SMILES. Converted amounts (≈) assume the structure as drawn. Bounds are passed on as bounds.

In series [1] the target is cytochrome P450 2C19 (Homo sapiens (Human), UniProt P33261). Put plainly: Cytochrome P450 2C19 inhibition. The settings on record: human liver microsomes, (S)-Mephenytoin hydroxylation, 37° C. The format is in vitro ADME. From the text:
Assay for Determination of Cytochrome P450 2C19 Inhibition

The nature of series [2]: Aqueous solubility (High Throughput Method). The format is physicochemical. The note with it: McIlvaine buffer pH 6.8 with 2.5% DMSO, aqueous buffer, kinetic from dmso stock; McIlvaine buffer pH 6.8, 2.5% DMSO, 24 h shaking. The method in brief: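 DMSO stock (10 mM) aliquots were diluted into McIlvaine buffer pH 6.8 and into acetonitrile/water (1/1), shaken 24 h, filtered and analysed by LC-UV. Buffer-dissolved amount was referenced to the acetonitrile/water solution over 0.001–0.125 mg/ml at 2.5% DMSO. Over 90% dissolved was marked ">".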

The target of series [3] is Human neutrophil elastase (Homo sapiens (Human), UniProt P08246). Put plainly: Human Neutrophil Elastase Assay. The format is biochemical. The note with it: substrate MeOSuc-Ala-Ala-Pro-Val-AMC 250 μM, pH 7.5, room temperature.
Chain of Human neutrophil elastase (P08246 30-247): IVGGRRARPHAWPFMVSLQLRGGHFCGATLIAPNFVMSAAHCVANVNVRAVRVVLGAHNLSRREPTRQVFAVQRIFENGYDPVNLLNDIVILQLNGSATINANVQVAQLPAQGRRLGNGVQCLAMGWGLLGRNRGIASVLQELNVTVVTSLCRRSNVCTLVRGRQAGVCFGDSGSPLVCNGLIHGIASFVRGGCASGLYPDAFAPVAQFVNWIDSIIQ
Protocol: The following buffers were used: Compound buffer: 100 mM Tris, 500 mM NaCl, adjusted to pH 7.5; Assay buffer: 100 mM Tris, 500 mM NaCl, adjusted to pH 7.5, containing 0.01% BSA.
Assay conditions: Test compounds were prediluted in DMSO and subsequently in compound buffer (5% DMSO final). […] After inactivation of the enzyme, fluorescence intensities were measured at 380 nm excitation and 460 nm emission wavelengths.
Each plate contains wells with a high value control (DMSO+enzyme+substrate) and wells with a low value control (DMSO+inactivated enzyme+substrate). IC50 values were estimated using a sigmoidal concentration response curve with variable slope. Means of low values were taken as 0%, means of high values as 100%.
A short description of series [4]: Metabolic stability with human hepatocytes. The note with it: human hepatocyte suspension (typically cryopreserved), 1 μM test compound, six hours, scaled with well stirred model. The format is in vitro ADME. Here is the method: Assay for the Determination of Metabolic Stability with Human Hepatocytes
The metabolic degradation of the test compound is assayed in a human hepatocyte suspension. Human hepatocytes (typically cryopreserved) are incubated in an appropriate buffer system (e.g. Dulbecco's modified eagle medium plus 3.5 μg glucagon/500 mL, 2.5 mg insulin/500 mL and 3.75 mg/500 mL hydrocortison) containing 5% species serum. Following a (typically) 30 min preincubation in an incubator (37° C., 10% CO2), 5 μl of test compound solution (80 μM; from 2 mM stock solution in DMSO diluted 1:25 with medium) are added into 395 μl hepatocyte suspension (cell density in the range 0.25-5*10^6 cells/mL, typically 1*10^6 cells/mL; final concentration of test compound 1 μM, final DMSO concentration 0.05%). The cells are incubated for six hours (incubator, orbital shaker) and samples (25 μl) are taken at 0, 0.5, 1, 2, 4 and 6 hours. Samples are transferred into acetonitrile and pelleted by centrifugation (5 min) The supernatant is transferred to a new 96-deepwell plate, evaporated under nitrogen and resuspended. The decline of parent compound is analyzed by LC-MS/MS.
The intrinsic clearance CL_[…] is calculated as follows: CL_[…]=Dose/AUC=(C0/CD)/(AUD+clast/k)*1′000/60 (C0: initial concentration in the incubation [μM], CD: cell density of vital cells [10^6 cells/mL], AUD: area under the data [μM*h], clast: concentration of last data point [μM], k: slope of the regression line for parent decline [h^−1])
The calculated in vitro hepatic intrinsic clearance can be scaled up to the intrinsic in vivo hepatic clearance and used to predict hepatic in vivo blood clearance (CL) by the use of a liver model (well stirred model): CL_[…]_INVIVO [ml/min/kg]=(CL_[…] [μL/min/10^6 cells]*hepatocellularity [10^6 cells/g liver]*liver factor [g/kg bodyweight])/1′000 CL [ml/min/kg]=CL_[…]_INVIVO [ml/min/kg]*hepatic blood flow [ml/min/kg]/(CL_[…]_INVIVO [ml/min/kg]+hepatic blood flow [ml/min/kg]) Qh [%]=CL [ml/min/kg]/hepatic blood flow [ml/min/kg]) (Hepatocellularity, human: 120*10^6 cells/g liver; liver factor, human: 25.7 g/kg bodyweight; blood flow, human: 21 ml/(min*kg))

In series [5] the target is cytochrome P450 2C8 (Homo sapiens (Human), UniProt P10632). Put plainly: Cytochrome P450 2C8 inhibition. The note with it: human liver microsomes, Amodiaquine deethylation, 37° C. The format is in vitro ADME. From the text: Assay for Determination of Cytochrome P450 2C8 Inhibition
Chain of cytochrome P450 2C8 (P10632 whole entry): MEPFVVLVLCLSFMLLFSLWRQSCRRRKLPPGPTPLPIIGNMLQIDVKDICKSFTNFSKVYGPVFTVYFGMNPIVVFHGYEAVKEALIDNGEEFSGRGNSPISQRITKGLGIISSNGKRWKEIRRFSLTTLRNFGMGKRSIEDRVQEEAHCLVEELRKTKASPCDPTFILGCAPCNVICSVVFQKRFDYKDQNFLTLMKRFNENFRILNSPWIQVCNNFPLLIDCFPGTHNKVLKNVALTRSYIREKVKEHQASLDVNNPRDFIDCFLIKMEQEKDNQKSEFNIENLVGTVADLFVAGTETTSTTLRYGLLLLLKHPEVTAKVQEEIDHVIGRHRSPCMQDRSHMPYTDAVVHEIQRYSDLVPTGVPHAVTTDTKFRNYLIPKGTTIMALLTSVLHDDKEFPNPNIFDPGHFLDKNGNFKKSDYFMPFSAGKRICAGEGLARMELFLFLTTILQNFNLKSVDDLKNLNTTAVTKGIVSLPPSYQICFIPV
In general terms: Microsomes from liver hold many membrane-bound enzymes, among them those of drug oxidation.

The nature of series [6]: Aqueous solubility (Shaked Flask Method). The series is classed as physicochemical. The settings on record: aqueous buffer, thermodynamic from solid, pH 6.8 (McIlvaine buffer). Here is the method:
Assay for Determination of Aqueous Solubility (“Shaked Flask Method”)
Saturated solutions are prepared in well plates by adding an appropriate volume of selected aqueous media (typically in the range of 0.25-1.5 ml) into each well which contains a known quantity of solid drug substance (typically in the range 0.5-5.0 mg). The wells are shaken or stirred for a predefined time period (typically in a range of 2-24 h) and then filtered using appropriate filter membranes (typically PTFE-filters with 0.45 μm pore size). Filter absorption is avoided by discarding the first few drops of filtrate. The amount of dissolved drug substance is determined by UV spectroscopy or by HPLC with UV-detection. In addition, the pH of the aqueous saturated solution is measured using a glass-electrode pH meter.

Series [7] concerns the target neutrophil elastase in human plasma (Homo sapiens (Human), UniProt P08246). As to the kind of experiment: Neutrophil elastase inhibitory activity in human plasma. The format is biochemical. The settings on record: human plasma assay (zymosan-stimulated blood plasma), substrate 250 μM, pH 7.5.
For series [8], the target named is cytochrome P450 2C9 (Homo sapiens (Human), UniProt P11712). As to the kind of experiment: Cytochrome P450 2C9 inhibition. The format is in vitro ADME. The settings on record: human liver microsomes, Diclofenac hydroxylation, 37° C. The text has this:
Assay for Determination of Cytochrome P450 2C9 Inhibition

Series [9] is described as follows: Metabolic stability with human liver microsomes. The series is classed as in vitro ADME. The settings on record: pH 7.6; pooled human liver microsomes, 37° C., 1 μM test compound, 1 mg/ml microsomal protein, NADPH; read-out: t1/2 INVITRO.
A short description of series [10]: Drug transport across human Caco-2 cells. The series is classed as in vitro ADME. The note with it: human, Caco-2 monolayers, pH 7.2, 37° C. In short, it runs like this: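 Caco-2 monolayers grown 10-25 days on 0.4 μm filters were dosed with typically 10 μM compound (DMSO ≤0.5%) in HTP-4 buffer pH 7.2 at 37 °C. A-B and B-A transport was run into receiver buffer with 2% BSA, sampling for up to 2 h. Concentrations were measured by LC-MS/MS or scintillation to give apparent permeability coefficients.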
(Caco-2 monolayers are a common model of the intestinal barrier.)

Chain of neutrophil elastase in human plasma (P08246 30-247): as the sequence (P08246 30-247) above
Chain of cytochrome P450 2C9 (P11712 whole entry): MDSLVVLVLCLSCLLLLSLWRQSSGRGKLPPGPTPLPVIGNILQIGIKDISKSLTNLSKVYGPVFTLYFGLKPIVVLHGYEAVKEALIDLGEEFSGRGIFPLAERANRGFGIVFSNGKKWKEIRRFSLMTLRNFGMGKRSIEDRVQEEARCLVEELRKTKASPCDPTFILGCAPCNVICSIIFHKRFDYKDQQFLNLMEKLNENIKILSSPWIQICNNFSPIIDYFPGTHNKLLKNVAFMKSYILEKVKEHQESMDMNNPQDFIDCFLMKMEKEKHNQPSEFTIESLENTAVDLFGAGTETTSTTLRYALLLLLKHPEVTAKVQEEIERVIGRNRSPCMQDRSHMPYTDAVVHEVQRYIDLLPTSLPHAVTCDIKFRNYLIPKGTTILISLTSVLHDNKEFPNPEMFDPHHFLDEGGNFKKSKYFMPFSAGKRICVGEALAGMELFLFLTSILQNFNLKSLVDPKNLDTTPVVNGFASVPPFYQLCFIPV
Chain of cytochrome P450 2C19 (P33261 whole entry): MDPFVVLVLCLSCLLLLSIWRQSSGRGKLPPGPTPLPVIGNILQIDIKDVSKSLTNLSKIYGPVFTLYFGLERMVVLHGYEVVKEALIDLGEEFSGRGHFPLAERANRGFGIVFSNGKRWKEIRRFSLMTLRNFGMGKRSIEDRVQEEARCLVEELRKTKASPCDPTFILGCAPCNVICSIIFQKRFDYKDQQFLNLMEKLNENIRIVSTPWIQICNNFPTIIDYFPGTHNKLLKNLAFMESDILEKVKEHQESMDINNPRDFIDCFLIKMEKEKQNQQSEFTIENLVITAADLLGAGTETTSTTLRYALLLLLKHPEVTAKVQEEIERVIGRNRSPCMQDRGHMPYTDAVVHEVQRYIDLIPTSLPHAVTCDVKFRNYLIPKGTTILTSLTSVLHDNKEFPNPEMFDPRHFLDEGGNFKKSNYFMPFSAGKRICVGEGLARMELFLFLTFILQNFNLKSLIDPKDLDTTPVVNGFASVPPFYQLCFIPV

What is called IC50 is the midpoint of a concentration-inhibition curve. A lower IC50 goes with greater potency. One may read the solubility as the concentration that dissolves in the medium under given conditions. The low end stands for little dissolved substance, the high end for much dissolved substance. `CN1C(=O)N(c2cccc(C(F)(F)F)c2)C2=C(C(=O)NCC2)[C@H]1c1ccc(C#N)cc1-c1cnn(C)c1` [Example 31A, 3-(1-Methyl-1H-pyrazol-4-yl)-4-[(4R)-3-methyl-2,5-dioxo-1-[3-(trifluoromethyl)-phenyl]-1H,2H,3H,4H,5H,6H,7H,8H-pyrido[4,3-d]pyrimidin-4-yl]benzonitrile]: the IC50 in series [1] was over 50 µM; in series [3], under 0.001 µM; in series [5], over 50 µM; in series [7], under 0.001 µM; in series [8] it was over 50 µM. The compound also displayed a solubility at 24 h in [2] of 11 µg/mL (≈ 21.7 µM). In addition, the CLhep predicted at 1 μM in series [4] was 3 mL/min/kg. The compound further came in with a solubility in series [6] of at least 10 µg/mL. Moreover, the half-life at 1 μM in series [9] is over 2.17 h. Moreover, the Papp A→B at 10 µM in series [10] (apical-to-basal, read-out: PEAB) worked out at 12 ×10⁻⁶ cm/s. Further, the Papp B→A at 10 µM in series [10] (basal-to-apical, read-out: PEBA) came out at 100 ×10⁻⁶ cm/s.
